The target of experiment [1] is T1, 5-HT1A serotonin receptor (Rattus norvegicus, UniProt P19327).
T1 construct: 44, 1685-1696 (1985); from tissue
T1 sequence (P19327 1-422): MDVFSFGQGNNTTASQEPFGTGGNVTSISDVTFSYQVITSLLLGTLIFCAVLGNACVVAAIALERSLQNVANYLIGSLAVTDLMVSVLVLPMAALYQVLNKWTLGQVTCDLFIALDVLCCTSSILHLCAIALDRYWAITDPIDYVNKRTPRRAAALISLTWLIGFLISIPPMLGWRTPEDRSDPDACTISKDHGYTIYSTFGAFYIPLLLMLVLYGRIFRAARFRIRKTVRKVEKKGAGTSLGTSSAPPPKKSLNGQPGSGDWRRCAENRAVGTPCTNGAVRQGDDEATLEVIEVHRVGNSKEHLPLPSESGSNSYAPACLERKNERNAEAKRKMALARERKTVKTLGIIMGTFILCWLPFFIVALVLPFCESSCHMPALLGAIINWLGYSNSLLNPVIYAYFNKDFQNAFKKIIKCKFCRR
Description: 5-HT1A receptor binding, displacement of ^3 H-8-OH DPAT.
Description: The serotoninergic properties of the compounds of this invention were established by the procedure of Hall et al., J. Neurochem.

In experiment [2] the target is T2, limbic D2 (dopamine) receptor (Rattus norvegicus, UniProt P61169).
T2 construct: from tissue; rat inferred
T2 sequence (P61169 whole entry): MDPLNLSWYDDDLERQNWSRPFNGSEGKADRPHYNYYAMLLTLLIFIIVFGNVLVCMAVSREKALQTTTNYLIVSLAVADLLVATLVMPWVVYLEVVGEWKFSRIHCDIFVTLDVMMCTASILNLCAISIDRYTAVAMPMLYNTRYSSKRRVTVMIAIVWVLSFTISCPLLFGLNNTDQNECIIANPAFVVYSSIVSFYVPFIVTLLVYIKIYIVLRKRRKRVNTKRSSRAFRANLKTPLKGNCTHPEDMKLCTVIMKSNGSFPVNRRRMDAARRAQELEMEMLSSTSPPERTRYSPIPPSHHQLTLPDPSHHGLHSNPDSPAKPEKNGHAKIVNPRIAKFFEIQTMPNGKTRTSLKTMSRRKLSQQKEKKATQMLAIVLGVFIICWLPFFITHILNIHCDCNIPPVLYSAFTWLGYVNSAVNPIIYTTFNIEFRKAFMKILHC
The experiment can be described thus: D2 receptor affinity, inhibition of ^3 H-spiroperidol (^3 H-spirohaloperidol) binding to limbic brain tissue.

Another experiment concerns 5-HT2 receptor. The experiment can be described thus: 5-HT2 inhibition of ^3 H-spiroperidol binding (rat brain cortex homogenate). The method, then:
5-HT2 inhibition of ^3 H-spiroperidol is determined in an analogous manner, employing rat brain cortex homogenate as the receptor tissue, following a modification of Fields et al., ibid; Yamamura et al., ibid; and Creese et al., Eu. J. Pharmacol. 49, 20 (1978).

The conditions of experiment [3]: Barone et al., 1986; cited from earlier work.

What is called inhibition is the percentage by which the read-out fell short of the control. A word on the Ki: it is a measure of affinity in units of concentration, obtained from inhibition or displacement.

As to `COc1ccccc1N1CCN(CCOC(=O)c2cccc3c2Cc2ccccc2-3)CC1` [Example 5, 9H-Fluorene-1-carboxylic acid 2-[4-(2-methoxyphenyl)-1-piperazinyl]ethyl ester], the inhibition at 1 µM in experiment [1] (^3 H-8-OH DPAT) came to 100%.
As to `O=C(OCCN1CCN(c2ncccn2)CC1)C12CC3CC(CC(C3)C1)C2` [Example 2, Tricyclo[3.3.1.1^3,7]decane-1-carboxylic acid 2-[4-(2-pyrimidinyl)-1-piperazinyl]ethyl ester], the Ki in experiment [1] (^3 H-8-OH DPAT, Ki calculated from IC50 values) is 8.5 nM. For the same molecule, the inhibition at 1 µM in experiment [2] is 26%.
For `N#Cc1ccccc1N1CCN(CCOC(=O)C23CC4CC(CC(C4)C2)C3)CC1` [Example 10, Tricyclo[3.3.1.1^3,7]decane-1-carboxylic acid [2-[4-(2-cyanophenyl)-1-piperazinyl]ethyl]ester], at 1 µM the inhibition in experiment [2] was 90%.
Regarding `CC12CC3CC(C1)CC(CC(=O)OCCN1CCC(=C(c4ccc(F)cc4)c4ccc(F)cc4)CC1)(C3)C2` [Example 12, Tricyclo[3.3.1.1^3,7]decane-3-methyl-1-acetic acid 2-[4-[bis(4-fluorophenyl)methylene]-1-piperidinyl]ethyl ester], in the experiment with 5-HT2 receptor, the “5HT2 Receptor Binding % Inhibition at 1 μM” value worked out at 63%. In experiment [2], this molecule registered an inhibition at 1 µM of 36%.
Regarding `CC12CC3CC(C1)CC(CC(=O)OCCN1CCN(c4ncccn4)CC1)(C3)C2` [Example 4, 3-Methyltricyclo[3.3.1.1^3,7]decane-1-acetic acid 2-[4-(2-pyrimidinyl)-1-piperazinyl]ethyl ester], the figures for the inhibition at 1 µM in experiment [1] (^3 H-8-OH DPAT) and in experiment [2] were 72% and 39%, respectively.
As for `Cc1nc2sccn2c(=O)c1CCN1CCC(=C(c2ccc(F)cc2)c2ccc(F)cc2)CC1` [Ritanserin], the “clinical efficacy as anxiolytic-antidepressant agents” value in experiment [3] is “demonstrated clinical efficacy”.
Regarding `O=C(OCCCN1CCN(c2cccc(Cl)c2)CC1)C12CC3CC(CC(C3)C1)C2` [Example 1, Tricyclo[3.3.1.1^3,7]decane-1-carboxylic acid 3-[4-(3-chlorophenyl)-1-piperazinyl]propyl ester], the inhibition at 1 µM was 80% in experiment [1] (^3 H-8-OH DPAT) and 67% in experiment [2].
Take `O=C(OCCCN1CCN(c2ncccn2)CC1)C12CC3CC(CC(C3)C1)C2` [Example 7, Tricyclo[3.3.1.1^3,7]decane-1-carboxylic acid 3-[4-(2-pyrimidinyl)-1-piperazinyl]propyl ester]: the results for the inhibition at 1 µM in experiment [1] (^3 H-8-OH DPAT) and in experiment [2] were 69% and 33%, respectively.
For `COc1ccccc1N1CCN(CCCOC(=O)C23CC4CC(CC(C4)C2)C3)CC1` [Example 3, Tricyclo[3.3.1.1^3,7]decane-1-carboxylic acid 3-[4-(2-methoxyphenyl)-1-piperazinyl]propyl ester], in that order: 100% and 90%.
With `O=C(OCCN1CCC(=C(c2ccc(F)cc2)c2ccc(F)cc2)CC1)C12CC3CC(CC(C3)C1)C2` [Example 11, Tricyclo[3.3.1.1^3,7]decane-1-carboxylic acid 2-[4-[bis(4-fluorophenyl)methylene]-1-piperidinyl]ethyl ester], the inhibition at 1 µM in experiment [1] (^3 H-8-OH DPAT) came to 95%; in experiment [2] it was 100%. In addition, in the experiment on 5-HT2 receptor, the “5HT2 Receptor Binding % Inhibition at 1 μM” value is given as 98%.
Consider `O=C1CC2(CCCC2)CC(=O)N1CCCCN1CCN(c2ncccn2)CC1` [Buspirone, reference compound], for which the inhibition at 0.001 µM in experiment [1] (read-out: percent inhibition (5-HT1A, ^3 H-8-OH DPAT)) was 97%.
The molecule `O=C(OCCN1CCN(c2cccc(Cl)c2)CC1)c1cccc2c1Cc1ccccc1-2` [Example 8, 9H-Fluorene-1-carboxylic acid 2-[4-(3-chlorophenyl)-1-piperazinyl]ethyl ester] showed an inhibition at 1 µM in experiment [1] (^3 H-8-OH DPAT) of 53%.

The record behind these values is patent publication US4797489A, “Adamantyl- and fluorenyl-arylpiperazines and -arylpiperidines” (American Home Products Corp., priority 1987, dated 1989).
